# Measurements: BindingDB's records for doi:10.7270/Q2M32T6M (Vanderbilt Screening Center for GPCRs, Ion Channels and …, 2009)
# Molecular target: T1, Solute carrier family 12 member 5 (Homo sapiens, UniProt Q9H2X9)
# T1 sequence (Q9H2X9 whole entry): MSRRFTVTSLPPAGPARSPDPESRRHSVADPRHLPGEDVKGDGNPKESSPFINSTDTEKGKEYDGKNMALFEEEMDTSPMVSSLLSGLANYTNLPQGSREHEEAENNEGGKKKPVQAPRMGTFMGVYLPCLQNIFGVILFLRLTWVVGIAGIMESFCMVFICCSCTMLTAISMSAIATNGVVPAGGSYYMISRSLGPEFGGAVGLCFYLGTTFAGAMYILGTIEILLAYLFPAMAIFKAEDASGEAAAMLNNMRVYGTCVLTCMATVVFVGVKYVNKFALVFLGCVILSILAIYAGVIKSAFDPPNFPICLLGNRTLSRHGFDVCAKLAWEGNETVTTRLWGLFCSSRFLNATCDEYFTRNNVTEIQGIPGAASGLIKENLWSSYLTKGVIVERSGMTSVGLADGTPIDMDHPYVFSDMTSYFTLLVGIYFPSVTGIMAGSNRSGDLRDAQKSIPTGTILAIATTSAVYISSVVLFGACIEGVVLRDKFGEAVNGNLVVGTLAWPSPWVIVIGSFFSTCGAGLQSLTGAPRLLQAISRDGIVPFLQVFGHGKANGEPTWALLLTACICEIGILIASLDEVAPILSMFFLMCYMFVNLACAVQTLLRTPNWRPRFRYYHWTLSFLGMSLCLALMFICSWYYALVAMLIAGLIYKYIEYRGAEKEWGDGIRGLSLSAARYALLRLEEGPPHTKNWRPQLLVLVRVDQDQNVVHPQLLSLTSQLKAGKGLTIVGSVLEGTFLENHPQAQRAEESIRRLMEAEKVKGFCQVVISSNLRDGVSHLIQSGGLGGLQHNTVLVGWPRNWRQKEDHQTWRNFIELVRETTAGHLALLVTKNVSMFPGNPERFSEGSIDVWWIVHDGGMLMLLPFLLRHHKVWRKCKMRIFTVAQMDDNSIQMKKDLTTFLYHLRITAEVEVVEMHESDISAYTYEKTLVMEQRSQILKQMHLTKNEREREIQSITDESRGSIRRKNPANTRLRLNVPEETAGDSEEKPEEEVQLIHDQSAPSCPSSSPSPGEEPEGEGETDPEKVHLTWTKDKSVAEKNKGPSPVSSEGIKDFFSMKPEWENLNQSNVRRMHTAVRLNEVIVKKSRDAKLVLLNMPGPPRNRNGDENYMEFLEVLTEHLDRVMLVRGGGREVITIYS
# Assay: concentration-response of KCC2 transport modulators – cell-based, HEK293 KCC2, FluoZin-2 fluorescence, dose response (AID 1736)
# Settings: not given
row,Structure (SMILES),EC50
1,O=C(Nc1ccc2oc(-c3ccccc3F)nc2c1)c1ccco1 [MLS000709180],827 µM
2,O=C(NC1CCCC1)C(c1ccncc1)N(Cc1ccco1)C(=O)c1ccc(-c2ccccc2)[nH]1 (centres undefined) [MLS000718066],8.13 µM
3,CC(=O)NCC1CCCN(c2nc3nonc3nc2N(C)Cc2ccccc2)C1 (centres undefined) [MLS000731683],5.1 µM
4,CCc1cc(C(=O)N2CCCC(CNC(=O)c3ccc(-c4ccccc4)cc3)C2)no1 (centres undefined) [MLS000731765],3 µM
5,CC(=O)NCCC(=O)N1CCCC(CNC(=O)c2ccc(-c3ccccc3)cc2)C1 (centres undefined) [MLS000733794],38.4 µM
6,CSCCC(=O)N1CCCC(CNC(=O)c2ccc(-c3ccccc3)cc2)C1 (centres undefined) [MLS000733867],21 µM
7,O=C(NNc1nc(-c2ccc(F)cc2)cs1)c1ccccc1 [MLS000763429],0.928 µM
8,O=C(NNc1nc(-c2ccccc2)cs1)c1cccs1 [MLS000858987],0.189 µM
9,CCC(CC)NC(=O)CSc1nnc(-c2c[nH]c3ccccc23)o1 [MLS001017505],2.04 µM
10,CNc1ccc2oc(C[C@H]3O[C@@]4(CC[C@H]3C)O[C@H]([C@H](C)C(=O)c3ccc[nH]3)[C@H](C)C[C@H]4C)nc2c1C(=O)O [MLS001056783],9.96 µM
11,"COc1ccc(N(CC(=O)Nc2cccc(C)c2C)S(=O)(=O)c2c(C)n[nH]c2C)cc1 [N-(2,3-dimethylphenyl)-2-[(3,5-dimethyl-1H-pyrazol-4-yl)sulfonyl-(4-methoxyphenyl)amino]ethanamide]",38.6 µM
12,"CC(=NNC(=O)c1ccc(Cl)c(Cl)c1)c1ccc(Br)s1 [N-[1-(5-bromo-2-thiophenyl)ethylideneamino]-3,4-dichlorobenzamide]",1.46 µM
13,CC(C)(C)NC(=O)C(c1ccncc1)N(Cc1ccco1)C(=O)c1ccc(-c2ccccc2)[nH]1 (centres undefined) [N-[2-(tert-butylamino)-2-oxo-1-pyridin-4-ylethyl]-N-(furan-2-ylmethyl)-5-phenyl-1H-pyrrole-2-carboxamide],19.1 µM
14,CC(C)(C)NC(=O)C(c1cccs1)N(CC1CCCO1)C(=O)c1ccc(-c2ccccc2)[nH]1 (centres undefined) [N-[2-(tert-butylamino)-2-oxo-1-thiophen-2-ylethyl]-N-(2-oxolanylmethyl)-5-phenyl-1H-pyrrole-2-carboxamide],2.31 µM
15,O=C(NN1C(=O)/C(=C/c2nc3ccccc3[nH]2)SC1=S)c1ccccc1Cl [N-{5-[1-(1H-Benzoimidazol-2-yl)-meth-(Z)-ylidene]-4-oxo-2-thioxo-thiazolidin-3-yl}-2-chloro-benzamide],0.128 µM

# Results, then the compound that gave them:
row,EC50,Structure (SMILES)
1,6.74 µM,c1ccc(-c2nnc(Sc3ncnc4c3cnn4-c3ccccc3)[nH]2)cc1 [SMR000019566]
2,23.4 µM,CCOC(=O)c1sc(Nc2nc3c(OC)cccc3s2)nc1C [SMR000027213]
3,17.1 µM,O=C(CSc1nccc(=O)[nH]1)N1CCc2ccccc2C1 [SMR000124078]
4,5.86 µM,CC(C)NC(=S)NNC1=c2cc(C(C)C)ccc2=NC1=O [SMR000242097]
5,2.79 µM,CC(=NNC(=S)Nc1c(C)cccc1C)c1cc2ccccc2o1 [SMR000260555]
6,4.66 µM,Cc1nc(SCc2ccc(F)cc2)c([N+](=O)[O-])[nH]1 [SMR000271028]
7,2.22 µM,Cc1ccc(C2=CSC3=NNC4(CCCCC4)NN23)cc1 [SMR000306481]
8,4.52 µM,CN(C)S(=O)(=O)c1ccc(Cl)c(C(=O)Nc2nc3ccccc3[nH]2)c1 [SMR000370637]
9,12.7 µM,Oc1c(Br)cc(Br)cc1C=NNC(=S)N[C@H]1CC2C=CC1C2 (some centres undefined) [SMR000455893]

# Same assay, conditions: inactive by the depositor's call
row,Structure (SMILES),EC50
1,Sc1ccc2ccccc2n1 [MLS001006012],7.95 µM
2,"CNC(=O)C(=O)Nc1nc(C23CC4CC(CC(C4)C2)C3)cs1 [N'-[4-(1-adamantyl)-1,3-thiazol-2-yl]-N-methyl-ethanediamide]",22.6 µM
3,CCOc1ccc(C(C(=O)NC2CCCC2)N(CCCO)C(=O)c2ccc(-c3ccccc3)[nH]2)cc1 (centres undefined) [N-[2-(cyclopentylamino)-1-(4-ethoxyphenyl)-2-oxoethyl]-N-(3-hydroxypropyl)-5-phenyl-1H-pyrrole-2-carboxamide],843 µM

# Second part, the compound after the results:
row,EC50,Structure (SMILES)
1,181 µM,O=c1c2ccccc2[nH]c(=S)n1CCN1CCC(=C(c2ccc(F)cc2)c2ccc(F)cc2)CC1 [SMR000058550]
2,29 µM,O=C(/C=C/c1cccs1)Nc1scc(-c2ccccc2)c1C(=O)O [SMR000364116]
